In patent US9006228B2 (Merck Sharp & Dohme Corp., priority 2011, dated 2015) one finds EC50 data, which are given here for 30 compounds.

This assay concerns the target T1, human GPR119 (Homo sapiens, UniProt Q8TDV5).
T1 sequence (Q8TDV5 1-308 limits assumed): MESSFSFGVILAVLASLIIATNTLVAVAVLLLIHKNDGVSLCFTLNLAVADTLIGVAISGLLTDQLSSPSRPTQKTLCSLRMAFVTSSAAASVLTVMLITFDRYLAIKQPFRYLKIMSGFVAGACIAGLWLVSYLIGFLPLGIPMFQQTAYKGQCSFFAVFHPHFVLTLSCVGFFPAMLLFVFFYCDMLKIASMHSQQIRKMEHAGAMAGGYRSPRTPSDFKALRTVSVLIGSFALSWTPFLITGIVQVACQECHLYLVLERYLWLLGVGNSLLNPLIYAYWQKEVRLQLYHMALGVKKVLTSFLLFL
Briefly: Measurement of GPR119 signaling (cAMP assay; LANCE kit or HTRF) in HEK293 cells stably transfected with human GPR119. The format is cell-based. To be noted: agonist-stimulated cAMP in HEK293 cells expressing human GPR119. Here is the method: Measurement of GPR119 Signaling Using LANCE 384-Well cAMP Kit
The adenylate cyclase assay was constructed following the LANCE™ cAMP Kit (Perkin Elmer, AD0264) instructions. […] The reaction was stopped by incubating with the supplied detection buffer containing the europium chelate of the Eu-SA/Biotin-cAMP tracer for 3 hours. The assay was performed in duplicate in a 384 well plate for duplicate plates. Fluorescence at 665 nm was measured using a PHERAstar instrument. Basal activity was determined using a DMSO control and maximum response was defined as cAMP stimulation produced by an internal agonist control. Standard cAMP concentrations were assayed concurrently for conversion of fluorescence signal to cAMP level. The data was analyzed using 4-parameter curve fit in Microsoft Excel.
Measurement of GPR119 Signaling Using a Cyclic AMP (cAMP) Homogenous Time Resolved Fluorescence (HTRF) Assay
Chinese hamster ovary (CHO) cell lines stably transfected with the permissive guanine nucleotide binding protein alpha 15 (Gα15) and murine GPR119 were maintained in DMEM media containing FBS, penicillin-streptomycin, puromycin, and G418 (geneticin). […] Agonist activation of the GPR119 receptor was measured in receptor transfected cells described above, treated with compounds of this invention, using a commercial homogenous time resolved fluorescence (HTRF) kit for measurement of cAMP (CisBio, Bedford, Mass.). The assay was performed in 96-well half-volume plates (murine) or 384-well plates (human) following the manufacturers instructions. Briefly, suspended cells were incubated with a dose titration of test compound at RT for 60 min, lysed, and incubated with HTRF reagents for an additional 60 min. The plate was read using an Envision multilabel reader (Perkin Elmer) adjusted to read time resolved fluorescence and the cAMP concentrations were extrapolated from a cAMP calibration curve. […] The concentration of test compound required to stimulate a half-maximal response (EC50), and efficacy as compared to an internal agonist control, was determined from a sigmoidal 4-parameter curve fit of the resulting plot of normalized activity versus compound concentration.
In general terms: cAMP levels reflect the balance of adenylyl cyclase and phosphodiesterase activity.
As a reminder, the EC50 is the concentration at which the effect is half-maximal. With `CC(C)(C)OC(=O)N1CCC([C@H]2C[C@H]2COCc2cc(F)c(C(=O)C3CC3)c(F)c2)CC1` [Example 52, tert-butyl 4-[(1R,2R)-2-({[4-(cyclopropylcarbonyl)-3,5-difluorobenzyl]oxy}methyl)cyclopropyl]piperidine-1-carboxylate], the EC50 is 2.4 nM.
The result for `O=C(c1c(F)cc(COC[C@@H]2C[C@@H]2C2CCN(c3ncc(Cl)cn3)CC2)cc1F)C1CC1` [Example 53] reads 1 nM; that for `CCc1cnc(N2CCC([C@H]3C[C@H]3COCc3ccc(-c4ncco4)cc3)CC2)nc1` [Example 54, 5-ethyl-2-{4-[(1R,2R)-2-({[4-(1,3-oxazol-2-yl)benzyl]oxy}methyl)cyclopropyl]piperidin-1-yl}pyrimidine], 12 nM.
The result for `CCc1cnc(N2CCC([C@H]3C[C@H]3COCc3ccc(S(=O)(=O)C4CC4)cc3)CC2)nc1` [Example 56, 2-{4-[(1R,2R)-2-({[4-(cyclopropylsulfonyl)benzyl]oxy}methyl)cyclopropyl]piperidin-1-yl}-5-ethylpyrimidine] reads 1.2 nM; that for `CCc1cnc(N2CCC([C@H]3C[C@H]3COCc3ccc(S(=O)(=O)CC)cc3)CC2)nc1` [Example 57, 5-ethyl-2-{4-[(1R,2R)-2-({[4-(ethylsulfonyl)benzyl]oxy}methyl)cyclopropyl]piperidin-1-yl}pyrimidine], 0.3 nM; that for `CCc1cnc(N2CCC([C@H]3C[C@H]3COCc3ccc(C[C@@H](C)O)cc3)CC2)nc1` [Example 58, (2R)-1-{4-[({(1R,2R)-2-[1-(5-ethylpyrimidin-2-yl)piperidin-4-yl]cyclopropyl}methoxy)methyl]phenyl}propan-2-ol], 11 nM.
The result for `CCc1cnc(N2CCC([C@H]3C[C@H]3COCc3ccc(C[C@H](C)O)cc3)CC2)nc1` [Example 59, (2S)-1-{4-[({(1R,2R)-2-[1-(5-ethylpyrimidin-2-yl)piperidin-4-yl]cyclopropyl}methoxy)methyl]phenyl}propan-2-ol] reads 1.6 nM.
Turning to `CCc1cnc(N2CCC([C@H]3C[C@H]3COCc3ccc(CCO)cc3)CC2)nc1` [Example 60, 2-{4-[({(1R,2R)-2-[1-(5-ethylpyrimidin-2-yl)piperidin-4-yl]cyclopropyl}methoxy)methyl]phenyl}ethanol], the EC50 was found to be 2.5 nM.
The result for `CCc1cnc(N2CCC([C@H]3C[C@H]3COCc3ccc(-n4cnnn4)cc3)CC2)nc1` [Example 61, 5-ethyl-2-{4-[(1R,2R)-2-({[4-(1H-tetrazol-1-yl)benzyl]oxy}methyl)cyclopropyl]piperidin-1-yl}pyrimidine] reads 0.07 nM; that for `CCc1cnc(N2CCC([C@H]3C[C@H]3COCc3ccc(-n4ccnn4)cc3)CC2)nc1` [Example 62, 5-ethyl-2-{4-[(1R,2R)-2-({[4-(1H-1,2,3-triazol-1-yl)benzyl]oxy}methyl)cyclopropyl]piperidin-1-yl}pyrimidine], 0.3 nM; that for `CCc1cnc(N2CCC([C@H]3C[C@H]3COCc3ccc(-c4ncno4)cc3)CC2)nc1` [Example 63, 5-ethyl-2-{4-[(1R,2R)-2-({[4-(1,2,4-oxadiazol-5-yl)benzyl]oxy}methyl)cyclopropyl]piperidin-1-yl}pyrimidine], 5.5 nM.
The result for `CCc1cnc(N2CCC([C@H]3C[C@H]3COCc3ccc(S(=O)(=O)CC[C@H](C)O)cc3)CC2)nc1` [Example 64] reads 0.6 nM.
The result for `CCc1cnc(N2CCC([C@H]3C[C@H]3[C@H](COC)OCc3ccc(S(C)(=O)=O)cc3)CC2)nc1` [Example 65] reads 850 nM; that for `CCc1cnc(N2CCC([C@H]3C[C@H]3[C@@H](COC)OCc3ccc(S(C)(=O)=O)cc3)CC2)nc1` [Example 66], 0.19 nM.
For the compound `CCc1cnc(N2CCC([C@H]3C[C@H]3[C@@H](COC)OCc3ccc(S(=O)(=O)CC)cc3)CC2)nc1` [Example 67], the EC50 came out at 0.16 nM.
The result for `CS(=O)(=O)c1ccc(COC[C@@H]2C[C@@H]2C2CCN(c3ncc(Cl)cn3)CC2)c(F)c1` [Example 68] reads 0.18 nM.
As to `CS(=O)(=O)c1ccc(COC[C@@H]2C[C@@H]2C2CCN(c3ncc(F)cn3)CC2)c(F)c1` [Example 69], the midpoint of the response, the EC50, lay at 2.4 nM.
The result for `CS(=O)(=O)c1ccc(COC[C@@H]2C[C@@H]2C2CCN(c3ncc(Br)cn3)CC2)c(F)c1` [Example 70] reads 0.19 nM; that for `CS(=O)(=O)c1ccc(COC[C@@H]2C[C@@H]2C2CCN(c3ncc(C=O)cn3)CC2)c(F)c1` [Example 71, 2-{4-[(1R,2R)-2-({[2-fluoro-4-(methylsulfonyl)benzyl]oxy}methyl)cyclopropyl]piperidin-1-yl} pyrimidine-5-carbaldehyde], 13.6 nM; that for `CS(=O)(=O)c1ccc(COC[C@@H]2C[C@@H]2C2CCN(c3ncc(C#N)cn3)CC2)c(F)c1` [Example 72], 9.3 nM.
As to `Cc1cnc(N2CCC([C@H]3C[C@H]3COCc3ccc(S(C)(=O)=O)cc3F)CC2)nc1` [Example 74], the response was half-maximal at 4.3 nM (EC50).
The result for `CC(C)(O)c1cnc(N2CCC([C@H]3C[C@H]3COCc3ccc(S(C)(=O)=O)cc3F)CC2)nc1` [Example 75, 2-(2-{4-[(1R,2R)-2-({[2-fluoro-4-(methylsulfonyl)benzyl]oxy}methyl)cyclopropyl]piperidin-1-yl}pyrimidin-5-yl)propan-2-ol] reads 25 nM; that for `CC(C)(O)c1cnc(N2CCC([C@H]3C[C@H]3COCc3ccc(S(C)(=O)=O)cc3F)CC2)nc1` [Example 76], 15 nM; that for `COCc1cnc(N2CCC([C@H]3C[C@H]3COCc3ccc(S(C)(=O)=O)cc3F)CC2)nc1` [Example 77, 2-{4-[(1R,2R)-2-({[2-fluoro-4-(methylsulfonyl)benzyl]oxy}methyl)cyclopropyl]piperidin-1-yl}-5-(methoxymethyl)pyrimidine], 1.6 nM.
The result for `CC(C)c1noc(N2CCC([C@H]3C[C@H]3COCc3ccc(S(C)(=O)=O)cc3F)CC2)n1` [Example 78, 4-[(1R,2R)-2-({[2-fluoro-4-(methylsulfonyl)benzyl]oxy}methyl)cyclopropyl 1]-1-(3-isopropyl-1,2,4-oxadiazol-5-yl)piperidine] reads 4.9 nM.
The result for `CC(C)(C)OC(=O)N1CCC([C@H]2C[C@H]2COCc2ccc(S(=O)(=O)CCO)cc2F)CC1` [Example 79, tert-butyl 4-{(1R,2R)-2-[({2-fluoro-4-[(2-hydroxyethyl)sulfonyl]benzyl}oxy)methyl]cyclopropyl}piperidine-1-carboxylate] reads 7.1 nM; that for `O=S(=O)(CCO)c1ccc(COC[C@@H]2C[C@@H]2C2CCN(c3ncc(Cl)cn3)CC2)c(F)c1` [Example 80], 2.3 nM; that for `O=S(=O)(CCO)c1ccc(COC[C@@H]2C[C@@H]2C2CCN(c3ncc(Br)cn3)CC2)c(F)c1` [Example 81], 1.7 nM.
Take `Cc1cnc(N2CCC([C@H]3C[C@H]3COCc3ccc(S(=O)(=O)CCO)cc3F)CC2)nc1` [Example 82]: the concentration for a half-maximal effect (EC50) was 11.7 nM.
As to `CCc1cnc(N2CCC([C@H]3C[C@H]3COCc3ccc(S(=O)(=O)CCO)cc3F)CC2)nc1` [Example 83], a half-maximal response (EC50) required 21 nM.
